Measurements reported in article PMC6657668, “Porcine Beta-Defensin 2 Provides Protection Against Bacterial Infection by a Direct Bactericidal Activity and Alleviates Inflammation via Interference With the TLR4/NF-κB Pathway” (Frontiers in Immunology, 2019).
Where a SMILES comes first, the peptide text is derived from it.

What was measured:
[1] = test system: JNK; test: Western blot of JNK and p-JNK in RAW 264.7 cells; format: cell-based, mouse; conditions: LPS 30 min with various concentrations of PBD-2 (Figure S4)
Procedure: (§1) RAW 264.7 cells were treated with LPS (1 μg/ml) alone or together with PBD-2 (10 μg/mL). […] Proteins were firstly analyzed with SDS-PAGE and then electro-transferred onto a PVDF (#ISEQ00010, Biosharp®, Beijing, China) membrane. The PVDF membrane was blocked with 1/100 bovine serum albumin (BSA, #V900933-100G, VETEC, Sigma-Aldrich®, St. Louis, MO, USA) at 10 μg/ml at 37°C for 2 h, washed with PBST five times, incubated with the antisera against p-p65 (# 3033), p65 (# 4764), p-ERK (# 4370), ERK (# 4695), p-p38 (# 4511), p38 (# 8690), p-JNK (# 4668), JNK (# 9258) (Cell Signaling Technology®, Danvers, MA, USA), and β-actin (# AA128, Beyotime®, Shanghai, China) at 2 μg/ml at 37°C for 2 h and washed five times again. The PVDF membrane was subsequently incubated with 1 μg/ml secondary antibody, namely, goat anti-rabbit IgG (# 7074S, Cell Signaling Technology®, Danvers, MA, USA), at 37°C for 2 h and washed five times. Lastly, immune-reactive bands were detected using an ECF Western blot system (Tanon 5200 Multi, Shanghai, China) and quantified using AlphaImager 2200 analysis software.
(§2) Supplementary file Image_4.TIF: Figure S4 Effects of PBD-2 on ERK, p38, and JNK signaling pathways. Cells were treated with LPS for 30 min with or without various concentrations of PBD-2. […] The signal intensity of each band was quantified (B–D). […]

[2] = design: method as in 2 sources, one per row (each row's own in cited_ref): ref [13] = [13]; PMID 27383796; doi:10.5713/ajas.16.0207; 13. Xu J Zhong F Zhang Y Zhang J Huo S Lin H . Construction of Bacillus subtilis strain engineered for expression of porcine beta-defensin-2/cecropin P1 fusion antimicrobial peptides and its growth-pr ||| ref [15] = [15]; PMID 26707031; doi:10.1111/asj.12540; 15. Tang Z Xu L Shi B Deng H Lai X Liu J . Oral administration of synthetic porcine beta-defensin-2 improves growth performance and cecal microbial flora and down-regulates the expression of intestina; conditions: cited from earlier work
[3] = PBD-2 overexpressed in TG pigs; ref [16]; cited from earlier work
Excerpt: The antibiotic resistance of pathogenic bacteria has become a global threat ([30]). Defensins are natural peptides secreted by many species and implicated in resisting bacterial infection ([31]). PBD-2 is one of the defensins expressed in pigs. […] The invasion of S. Typhimurium can increase the expression of PBD-2 in porcine epithelial cells ([32]). […] PBD-2 also improves the growth perf ...

[4] = test system: p38; test: Western blot of p38 and p-p38 in RAW 264.7 cells; format: cell-based, mouse; conditions: LPS 30 min with various concentrations of PBD-2 (Figure S4)
Procedure: as §1, §2

[5] = test system: S. Typhimurium; test: Spleen and caecum weight ratios of mice infected with S. Typhimurium; conditions: PBD-2 expressed in TG mice; oral 2.5 × 10^8 CFU; legend: 24 h post-infection; WT n = 9, TG n = 8
Procedure: Four infection experiments were conducted to determine the resistance to S. Typhimurium of the TG mice. For body weight measurements, 7 WT and 7 TG mice were orally administered with 2.5 × 10^8 CFU of S. Typhimurium, and the body weight of each mouse was measured on days 1, 2, 3, 4, and 5 after infection. For the detection of the tissue weight ratios, bacterial loads in tissues and tissue lesions after S. Typhimurium infection, 9 WT and 8 TG mice were orally administered with 2.5 × 10^8 CFU of S. Typhimurium. The spleen, caecum and body weights of the mice were weighed at 24 h post-infection. The bacterial loads in the tissues were also measured ([26]). The spleen and caecum were weighed and homogenized in cold PBS at a ratio of 4 ml per gram of tissue and coated plates. The bacterial numbers in the homogenates were counted by serially diluting the homogenates and spreading on plates. Caeca were harvested for histopathological analysis by using the methods described above. The intestinal damage, including epithelial damage, submucosal oedema, and neutrophil aggregation, was observed.

[6] = transgenic expression; ref [24]; cited from earlier work
[7] = test system: RAW 264.7 cells; test: Cytokine levels of RAW 264.7 cells after treatment with S. Typhimurium (ELISA); format: cell-based, mouse; conditions: S. Typhimurium MOI = 10:1, 1 h, n = 6
Procedure: RAW 264.7 cells and RAW 264.7 cells stably expressing PBD-2 were pre-treated with S. Typhimurium at MOI = 10:1 for 1 h or with LPS (1 μg/ml) for 16 h, washed with PBS twice and incubated with RPMI 1640 that contained PBS or PBD-2 (10 μg/mL) for 16 h. RAW 264.7 cells stably expressing PBD-2 were maintained in RPMI 1640 that contained PBS for 16 h (n = 6 for each group). The expression levels of proinflammatory cytokines in the cell culture supernatant were determined through ELISA in accordance with the manufacturer's instruction.

[8] = test system: ERK; test: Western blot of ERK and p-ERK in RAW 264.7 cells; format: cell-based, mouse; conditions: LPS 30 min with various concentrations of PBD-2 (Figure S4)
Procedure: as §1, with “RAW 264.7 cells were treated with LPS (1 μg/ml) alone or together with PBD-2 (10 μg/mL).” left out
Supplementary file Image_4.TIF: Figure S4 Effects of PBD-2 on ERK, p38, and JNK signaling pathways. Cells were treated with LPS for 30 min with or without various concentrations of PBD-2. The expression levels of ERK, p-ERK, p38, p-p38, JNK, p-JNK, and β-actin were examined by Western blot (A). The signal intensity of each band was quantified (B–D). Click here for additional data file.

[9] = PBD-2 expressed by RAW 264.7–PBD-2 cells

## CC[C@H](C)[C@H](NC(=O)[C@@H]1CSSC[C@@H]2NC(=O)[C@@H]3CCCN3C(=O)[C@H](CO)NC(=O)[C@H](Cc3ccccc3)NC(=O)[C@H](CC(N)=O)NC(=O)[C@@H]3CSSC[C@H](NC(=O)[C@H]([C@@H](C)O)NC(=O)CNC(=O)[C@H](CCC(=O)O)NC(=O)[C@H]([C@@H](C)CC)NC(=O)[C@H](CCCNC(=N)N)NC(=O)[C@H](CC(N)=O)NC(=O)[C@H](Cc4ccccc4)NC(=O)[C@H](CC(C)C)NC(=O)[C@@H]4CCCN4C2=O)C(=O)N[C@@H](Cc2ccc(O)cc2)C(=O)N[C@@H](CO)C(=O)NCC(=O)N[C@@H](CCCCN)C(=O)N[C@@H](C)C(=O)N[C@@H](CCCCN)C(=O)N[C@@H](CSSC[C@H](NC(=O)[C@@H](NC(=O)[C@H](Cc2ccc(O)cc2)NC(=O)[C@H](Cc2c[nH]cn2)NC(=O)[C@@H](N)CC(=O)O)[C@@H](C)CC)C(=O)N[C@@H](C)C(=O)N[C@@H](CCCCN)C(=O)N[C@@H](CCCCN)C(=O)NCC(=O)NCC(=O)N[C@@H]([C@@H](C)O)C(=O)N3)C(=O)N1)C(=O)N[C@@H](CCCNC(=N)N)C(=O)O [PBD-2, Porcine beta-defensin 2] (HELM PEPTIDE1{D.H.Y.I.C.A.K.K.G.G.T.C.N.F.S.P.C.P.L.F.N.R.I.E.G.T.C.Y.S.G.K.A.K.C.C.I.R}$PEPTIDE1,PEPTIDE1,5:R3-34:R3|PEPTIDE1,PEPTIDE1,12:R3-27:R3|PEPTIDE1,PEPTIDE1,17:R3-35:R3$$$V2.0; N-terminus and C-terminus assumed)
[1]
  LPS-induced phosphorylation of JNK: did not affect the LPS-induced phosphorylation of ERK, p38, and JNK
[2]; oral administration, pigs, ref [15]
  growth performance, caecum microbial flora, inflammatory cytokine expression: improve growth performance and caecum microbial flora and reduce the expression of inflammatory cytokines in pigs
[2]; ref [13]
  growth and diarrhea in piglets: promote growth, alleviate diarrhea in piglets
[3]
  bactericidal activity of the serum of TG pigs: higher than that of WT pigs
[4]
  LPS-induced phosphorylation of p38: did not affect the LPS-induced phosphorylation of ERK, p38, and JNK
[5]
  caecum weight ratio (organ weight/body weight), caecal enlargement: the WT mice exhibited more severe splenic atrophy and caecal enlargement compared with the TG mice on day 2 post-infection (p < 0.05)
  spleen weight ratio (organ weight/body weight), splenic atrophy: the WT mice exhibited more severe splenic atrophy and caecal enlargement compared with the TG mice on day 2 post-infection (p < 0.05)
[6]
  expression level of PBD-2 in the TG mice: ≤ 10^4 ng/g tissue
[7]; [9]
  level of IL-1β: significantly lower in the RAW 264.7–PBD-2 cells than in the RAW 264.7 cells after S. Typhimurium treatment (p < 0.01)
  level of IL-6: significantly lower in the RAW 264.7–PBD-2 cells than in the RAW 264.7 cells after S. Typhimurium treatment (p < 0.01)
  level of TNF-α: significantly lower in the RAW 264.7–PBD-2 cells than in the RAW 264.7 cells after S. Typhimurium treatment (p < 0.01)
[7]; synthetic PBD-2 10 μg/mL, 16 h
  secretion of IL-1β: significantly inhibited the secretion of TNF-α, IL-6, and IL-1β after S. Typhimurium treatment (p < 0.05)
  secretion of IL-6: significantly inhibited the secretion of TNF-α, IL-6, and IL-1β after S. Typhimurium treatment (p < 0.05)
  secretion of TNF-α: significantly inhibited the secretion of TNF-α, IL-6, and IL-1β after S. Typhimurium treatment (p < 0.05)
[8]
  LPS-induced phosphorylation of ERK: did not affect the LPS-induced phosphorylation of ERK, p38, and JNK
